US8377974B2 (Millennium Pharmaceuticals, Inc., priority 2004, dated 2013)

Target: T1, human plasma protein factor Xa (Homo sapiens, UniProt P00742)
T1 construct: measure proteolytic activity of the enzyme (factor Xa); purchased Haematologic Technologies (Essex Junction, Vt.); host or cells: human plasma
Assay: Factor Xa IC50 determination: cleavage of paranitroanilide substrate S-2765 in 96-well plates
Type: biochemical
Conditions: fXa 1 nM, S-2765 100 μM, Tris buffered saline pH 7.4, room temperature
Outline: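 Human plasma factor Xa (1 nM) preincubated 5 min at room temperature with inhibitor (0.01 nM–10 μM final) in Tris-buffered saline pH 7.4 with 5 mM CaCl2, 0.1% BSA, 5% DMSO. S-2765 at 100 μM final; hydrolysis at 405 nm over 2 min. IC50 from 4-parameter fit of initial velocities.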

T1 sequence (P00742 235-488 limits assumed): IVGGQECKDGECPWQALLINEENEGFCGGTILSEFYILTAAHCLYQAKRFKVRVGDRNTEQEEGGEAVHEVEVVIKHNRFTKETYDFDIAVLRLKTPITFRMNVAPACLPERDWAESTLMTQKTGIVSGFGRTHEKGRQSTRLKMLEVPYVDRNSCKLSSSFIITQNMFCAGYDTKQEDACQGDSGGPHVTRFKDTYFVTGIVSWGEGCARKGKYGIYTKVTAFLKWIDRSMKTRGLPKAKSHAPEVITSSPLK
T1 sequence (P00742 41-179 partner limits assumed): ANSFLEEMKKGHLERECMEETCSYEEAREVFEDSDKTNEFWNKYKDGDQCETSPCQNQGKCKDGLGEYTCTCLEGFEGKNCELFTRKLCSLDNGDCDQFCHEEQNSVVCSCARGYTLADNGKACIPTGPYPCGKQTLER

| IC50 | Compound |
| --- | --- |
| 100 to 500 nM | N=C(c1ccc(-c2coc(CNC(=O)c3ccc(Cl)s3)n2)cc1)N1CCCC1 [Example 359, 5-Chloro-N-((4-(4-(imino(pyrrolidin-1-yl)methyl)phenyl)oxazol-2-yl)methyl)thiophene-2-carboxamide] |
| ≥ 500 nM | O=C(NCC1CC(c2cccc(-c3ccncc3)c2)=NO1)c1ccc(Cl)s1 (stereo not drawn) [Example 275, 5-Chloro-thiophene-2-carboxylic acid [3-(3-pyridin-4-yl-phenyl)-4,5-dihydro-isoxazol-5-ylmethyl]-amide] |
| ≤ 100 nM | Nc1ccc(-c2cc(CNC(=O)c3ccc(Cl)s3)on2)cc1 [Example 161, 5-Chloro-thiophene-2-carboxylic acid [3-(4-amino-phenyl)-isoxazol-5-ylmethyl]-amide] |
| ≤ 100 nM | COc1ccc(=O)n(-c2ccc(-n3cc(CNC(=O)c4ccc(Cl)s4)nn3)cc2)c1 [Example 297, 5-Chloro-N-((1-(4-(5-methoxy-2-oxopyridin-1(2H)-yl)phenyl)-1H-1,2,3-triazol-4-yl)methyl)thiophene-2-carboxamide] |
| ≥ 500 nM | COc1ccc(CN(C)C)c(-c2ccc(-c3cc(CNC(=O)c4ccc(Cl)s4)on3)cc2)c1 [Example 215, 5-Chloro-thiophene-2-carboxylic acid [3-(2′-dimethylaminomethyl-5′-methoxy-biphenyl-4-yl)-isoxazol-5-ylmethyl]-amide] |
| ≤ 100 nM | O=C(NCc1cc(-c2ccc(-n3ccccc3=O)cc2)no1)c1ccc(Cl)s1 [Example 289, 5-Chloro-N-((3-(4-(2-oxopyridin-1(2H)-yl)phenyl)isoxazol-5-yl)methyl)thiophene-2-carboxamide] |
| 100 to 500 nM | CN(C)Cc1cccc(-c2ccc(-c3cc(CNC(=O)c4ccc(Cl)s4)on3)cc2)c1 [Example 211, 5-Chloro-thiophene-2-carboxylic acid [3-(3′-dimethylaminomethyl-biphenyl-4-yl)-isoxazol-5-ylmethyl]-amide] |
| 100 to 500 nM | COCCN(C)C(=N)c1ccc(C2=NOC(C)(CNC(=O)c3ccc(Cl)s3)C2)cc1 (stereo not drawn) [Example 66, 5-Chloro-thiophene-2-carboxylic acid (3-{-4-[N-(2-methoxy-ethyl)-N-methyl-carbamimidoyl]-phenyl}-5-methyl-4,5-dihydro-isoxazol-5-ylmethyl)-amide] |
| ≤ 100 nM | CN1CCN=C1c1ccc(-c2cc(CNC(=O)c3ccc(Cl)s3)on2)c(N2CCOCC2)c1 [Example 99, 5-Chloro-thiophene-2-carboxylic acid {3-[4-(1-methyl-4,5-dihydro-1H-imidazol-2-yl)-2-morpholin-4-yl-phenyl]-isoxazol-5-ylmethyl}-amide] |
| ≥ 500 nM | O=C(NCC1CC(C2CCN(Cc3ccccc3)CC2)=NO1)c1ccc(Cl)s1 (stereo not drawn) [Example 170, 5-Chloro-thiophene-2-carboxylic acid [3-(1-benzyl-piperidin-4-yl)-4,5-dihydro-isoxazol-5-ylmethyl]-amide] |
| ≤ 100 nM | CN(C)C(=N)c1ccc(C2=NOC(CNC(=O)c3ccc(Cl)s3)C2)c(OC2CCCCC2)c1 (stereo not drawn) [Example 115, 5-Chloro-thiophene-2-carboxylic acid {3-[2-cyclohexyloxy-4-(N,N-dimethyl-carbamimidoyl)-phenyl]-4,5-dihydro-isoxazol-5-ylmethyl}-amide] |
| ≤ 100 nM | N=C(c1ccc(-n2cc(CNC(=O)c3ccc(Cl)s3)cn2)cc1)N1CCC1 [Example 327, N-((1-(4-(Azetidin-1-yl(imino)methyl)phenyl)-1H-pyrazol-4-yl)methyl)-5-chlorothiophene-2-carboxamide] |
| ≤ 100 nM | CC(C)Oc1cc(C(=N)N2CCCC2)ccc1C1=NOC(CNC(=O)c2ccc(Cl)s2)C1 (stereo not drawn) [Example 111, 5-Chloro-thiophene-2-carboxylic acid {3-[4-(imino-pyrrolidin-1-yl-methyl)-2-isopropoxy-phenyl]-4,5-dihydro-isoxazol-5-ylmethyl}-amide] |
| 100 to 500 nM | O=C(NCC1CC(c2ccc(-c3ccccc3C(F)(F)F)cc2)=NO1)c1ccc(Cl)s1 (stereo not drawn) [Example 187, 5-Chloro-thiophene-2-carboxylic acid [3-(2′-trifluoromethyl-biphenyl-4-yl)-4,5-dihydro-isoxazol-5-ylmethyl]-amide] |
| ≤ 100 nM | O=C(NCC1CC(c2ccc(Nc3ccnc4cc(C(F)(F)F)ccc34)cc2)=NO1)c1ccc(Cl)s1 (stereo not drawn) [Example 394, 5-Chloro-N-((3-(4-(7-(trifluoromethyl)quinolin-4-ylamino)phenyl)-4,5-dihydroisoxazol-5-yl)methyl)thiophene-2-carboxamide] |
| ≤ 100 nM | O=C(NCC1CC(c2ccc(-c3ccccc3CN3CCCCC3)cc2)=NO1)c1ccc(Cl)s1 (stereo not drawn) [Example 196, 5-Chloro-thiophene-2-carboxylic acid [3-(2′-piperidin-1-ylmethyl-biphenyl-4-yl)-4,5-dihydro-isoxazol-5-ylmethyl]-amide] |
| ≥ 500 nM | O=C(NCC1CC(c2cccc(-c3cccc(CN4CCCC4)c3)c2)=NO1)c1ccc(Cl)s1 (stereo not drawn) [Example 265, 5-Chloro-thiophene-2-carboxylic acid [3-(3′-pyrrolidin-1-ylmethyl-biphenyl-3-yl)-4,5-dihydro-isoxazol-5-ylmethyl]-amide] |

| IC50 | Compound |
| --- | --- |
| 100 to 500 nM | N=C(c1ccc(-c2nc(CNC(=O)c3ccc(Cl)s3)co2)cc1)N1CCC(C(N)=O)CC1 [Example 347, 1-((4-(4-((2-Chlorothiophene-5-carboxamido)methyl)oxazol-2-yl)phenyl)(imino)methyl)piperidine-4-carboxamide] |
| ≥ 500 nM | O=C(NCc1cc(-c2cccc(-c3cccc(CN4CCCC4)c3)c2)no1)c1ccc(Cl)s1 [Example 271, 5-Chloro-thiophene-2-carboxylic acid [3-(3′-pyrrolidin-1-ylmethyl-biphenyl-3-yl)-isoxazol-5-ylmethyl]-amide] |
| ≥ 500 nM | CN(C)Cc1cccc(-c2cccc(C3=NOC(CNC(=O)c4ccc(Cl)s4)C3)c2)c1 (stereo not drawn) [Example 264, 5-Chloro-thiophene-2-carboxylic acid [3-(3′-dimethylaminomethyl-biphenyl-3-yl)-4,5-dihydro-isoxazol-5-ylmethyl]-amide] |
| ≤ 100 nM | CSc1cc(C2=NCCN2C)ccc1C1=NOC(CNC(=O)c2ccc(Cl)s2)C1 (stereo not drawn) [Example 137, 5-Chloro-thiophene-2-carboxylic acid {3-[4-(1-methyl-4,5-dihydro-1H-imidazol-2-yl)-2-methylsulfanyl-phenyl]-4,5-dihydro-isoxazol-5-ylmethyl}-amide] |
| ≤ 100 nM | N=C(c1ccc(-c2cc(CNC(=O)c3ccc(Cl)s3)on2)c(N2CCOCC2)c1)N1CCCCC1 [Example 101, 5-Chloro-thiophene-2-carboxylic acid {3-[4-(imino-piperidin-1-yl-methyl)-2-morpholin-4-yl-phenyl]-isoxazol-5-ylmethyl}-amide] |
| ≤ 100 nM | N#Cc1ccc(C2=NOC(CNC(=O)c3ccc(Cl)s3)C2)cc1 (stereo not drawn) [Example 7, 5-Chloro-thiophene-2-carboxylic acid [3-(4-cyano-phenyl)-4,5-dihydro-isoxazol-5-ylmethyl]-amide] |
| ≤ 100 nM | CCN(C)C(=N)c1ccc(C2=NOC(CNC(=O)c3ccc(Cl)s3)C2)cc1 (stereo not drawn) [Example 18, 5-Chloro-thiophene-2-carboxylic acid {3-[4-(N-ethyl-N-methyl-carbamimidoyl)-phenyl]-4,5-dihydro-isoxazol-5-ylmethyl}-amide] |
| ≤ 100 nM | N=C(c1ccc(-n2cnc(CNC(=O)c3ccc(Cl)s3)c2)cc1)N1CCCCC1 [Example 368, 5-Chloro-N-((1-(4-(imino(piperidin-1-yl)methyl)phenyl)-1H-imidazol-4-yl)methyl)thiophene-2-carboxamide] |
| ≤ 100 nM | CN(C)C(=N)c1ccc(-c2cc(CNC(=O)c3ccc(Cl)s3)on2)cc1 [Example 21, 5-Chloro-thiophene-2-carboxylic acid {3-[4-(N,N-dimethyl-carbamimidoyl)-phenyl]-isoxazol-5-ylmethyl}-amide] |
| ≤ 100 nM | Cc1cccn(-c2ccc(C3=NOC(CNC(=O)c4ccc(Cl)s4)C3)cc2)c1=O (stereo not drawn) [Example 281, 5-Chloro-N-((3-(4-(3-methyl-2-oxopyridin-1(2H)-yl)phenyl)-4,5-dihydroisoxazol-5-yl)methyl)thiophene-2-carboxamide] |
| ≤ 100 nM | O=C(NCC1CC(c2ccc(-n3cc(F)ccc3=O)cc2)=NO1)c1ccc(Cl)s1 (stereo not drawn) [Example 280, 5-Chloro-N-((3-(4-(5-fluoro-2-oxopyridin-1(2H)-yl)phenyl)-4,5-dihydroisoxazol-5-yl)methyl)thiophene-2-carboxamide] |
| ≤ 100 nM | N=C(c1ccc(-c2cc(CNC(=O)c3ccc(Cl)s3)ccc2F)cc1)N1CCCC1 [Example 379, 5-Chloro-N-((3-(4-(imino(pyrrolidin-1-yl)methyl)phenyl)-4-fluorophenyl)methyl)thiophene-2-carboxamide] |
| ≤ 100 nM | COCCN(C)C(=N)c1ccc(-n2cc(CNC(=O)c3ccc(Cl)s3)nn2)cc1 [Example 316, N-((1-(4-(N-(2-Methoxyethyl)-N-methylcarbamimidoyl)phenyl)-1H-1,2,3-triazol-4-yl)methyl)-5-chlorothiophene-2-carboxamide] |
| 100 to 500 nM | C#CCN(C)C(=N)c1ccc(-c2cc(CNC(=O)c3ccc(Cl)s3)on2)cc1 [Example 33, 5-Chloro-thiophene-2-carboxylic acid {3-[4-(N-methyl-N-prop-2-ynyl-carbamimidoyl)-phenyl]-isoxazol-5-ylmethyl}-amide] |
| 100 to 500 nM | CN(Cc1ccco1)C(=N)c1ccc(-c2nc(CNC(=O)c3ccc(Cl)s3)co2)cc1 [Example 349, N-((2-(4-(N-(Furan-2-ylmethyl)-N-methylcarbamimidoyl)phenyl)oxazol-4-yl)methyl)-5-chlorothiophene-2-carboxamide] |
| 100 to 500 nM | N=C(c1ccc(C2=NOC(CNC(=O)c3ccc(Cl)s3)C2)c(N2CCOCC2)c1)N1CCCCC1 (stereo not drawn) [Example 85, 5-Chloro-thiophene-2-carboxylic acid {3-[4-(imino-piperidin-1-yl-methyl)-2-morpholin-4-yl-phenyl]-4,5-dihydro-isoxazol-5-ylmethyl}-amide] |
